Measurements reported in US7141546B1, “CRFR2 selective ligands” (priority 2001, dated 2006).

How the values were obtained:
human CRFR2b = target: T1, human CRFR2b (Homo sapiens, UniProt Q13324); assay: Competitive displacement binding assay, stably transfected CHO cells expressing human CRFR2b; conditions: in words; binding to CRFR2 compared with CRFR1
T1 construct: expressed in transfected cells
T1 sequence (Q13324 1-438 isoform Q13324-2): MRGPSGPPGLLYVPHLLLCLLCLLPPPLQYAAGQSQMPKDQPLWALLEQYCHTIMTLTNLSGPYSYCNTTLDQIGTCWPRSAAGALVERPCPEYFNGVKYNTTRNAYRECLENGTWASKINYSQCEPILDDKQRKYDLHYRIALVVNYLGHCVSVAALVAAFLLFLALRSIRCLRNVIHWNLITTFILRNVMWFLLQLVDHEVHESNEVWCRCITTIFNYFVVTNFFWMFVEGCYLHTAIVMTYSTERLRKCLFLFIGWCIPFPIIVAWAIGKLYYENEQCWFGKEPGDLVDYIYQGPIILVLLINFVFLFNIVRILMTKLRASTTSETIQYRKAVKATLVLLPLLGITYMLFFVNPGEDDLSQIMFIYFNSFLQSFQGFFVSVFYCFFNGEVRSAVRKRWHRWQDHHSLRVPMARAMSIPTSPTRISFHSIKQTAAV
Procedure: CRF receptors have now been cloned and are disclosed in the aforementioned Chen et al. article, in Perrin, M., et al., P.N.A.S, 92, 2969–2973 (March 1995), and in Lovenberg, T., et al., P.N.A.S., 92, 836–840 (January 1995). Binding affinity is a term used to refer to the strength of interaction between ligand and receptor. […] Ki (inhibitory binding affinity constant) is determined using a “standard” or “tracer” radioactive ligand and thus measures the displacement of the tracer from the receptor or binding protein; it is most properly expressed with reference to such tracer. However, so long as these assays are carefully performed under specific conditions with relatively low concentrations of receptor or the like, the calculated Ki will be substantially the same as its dissociation constant KD. […] It is particularly efficient to test for Ki because only a single tracer need be labelled, e.g. radioiodinated. […] Those reported hereinafter are derived using radioactively labeled [Tyr Glu^1, Nle^17]-Svg as a radioligand.
(§1) Binding assays with cells expressing human CRFR1 are carried out as described in the Chen et al. P.N.A.S., supra. The affinities of test peptides for CRFR1 and CRFR2b stably expressed in CHO cells were determined by competitive displacement of ^125I-(Nle^21, Tyr^32) ovine CRF (for CRFR1) or of [^125I-Tyr^o-]Ucn (for CRFR2b) as described.

CRFR1 = target: T2, CRFR1 (Homo sapiens, UniProt P34998); assay: cAMP accumulation in CHO cells stably transfected with CRFR1 and treated with CRF; format: cell-based
T2 construct: expressed in transfected cells
T2 sequence (P34998 24-415): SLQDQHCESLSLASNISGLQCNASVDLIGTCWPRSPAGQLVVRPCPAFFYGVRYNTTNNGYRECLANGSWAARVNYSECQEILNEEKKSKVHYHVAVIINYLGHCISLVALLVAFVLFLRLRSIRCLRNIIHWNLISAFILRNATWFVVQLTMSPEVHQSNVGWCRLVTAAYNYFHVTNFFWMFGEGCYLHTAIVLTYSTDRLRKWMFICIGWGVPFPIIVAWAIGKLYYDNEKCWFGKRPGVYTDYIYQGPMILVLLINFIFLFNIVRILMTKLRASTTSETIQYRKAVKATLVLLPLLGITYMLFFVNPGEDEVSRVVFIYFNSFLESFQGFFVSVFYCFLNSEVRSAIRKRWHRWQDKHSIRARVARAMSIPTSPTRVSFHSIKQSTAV
Excerpt: (§2) In addition to inhibiting CRF receptor binding, a candidate's CRF receptor antagonist activity may be established by the ability of the compound to antagonize an activity associated with CRF. For example, CRF is known to stimulate various biochemical processes, including adenylate cyclase activity. Therefore, compounds may be evaluated as CRF antagonists by their ability to antagonize CRF-stimulated adenylate cyclase activity by, for example, measuring cAMP levels. The inhibition of CRF-stimulated adenylate cyclase activity, determined by the assay described by G. Battaglia et al., Synapse 1:572 (1987), provides an assay for determining a compound's ability to antagonize CRF activity. Accordingly, CRF receptor antagonist activity may be determined by assay techniques which generally include an initial binding assay followed by such a cAMP screening protocol.
as §1

CRFR2 = target: T3, CRFR2 (Homo sapiens, UniProt Q13324); assay: cAMP accumulation in CHO cells stably transfected with CRFR2 and treated with CRF; format: cell-based; conditions: for antagonism of CRF activity with respect to CRFR2 (cAMP accumulation): CHO cells stably transfected with CRFR2, treated with CRF
T3 construct: expressed in transfected cells
T3 sequence (Q13324 1-438 isoform Q13324-2): T1 sequence (Q13324 1-438 isoform Q13324-2)
Excerpt: as §2, with “protocol. […]” for “protocol.”

Row | Substance | binding selectivity, CRFR2 versus CRFR1 (human CRFR2b) | antagonism of CRF activity with respect to CRFR1 (cAMP accumulation) (CRFR1) | antagonism of CRF activity with respect to CRFR2 (cAMP accumulation) (CRFR2) | selectivity as Ucn antagonist (CRFR2; in words, compared with the parent Ucn analog)
1 | (cyclo 31–34)[D-Phe^11, Lys^34]-Ucn(11–40) [Example 10A] | very good selectivity | little or no effect | effectively antagonize CRF activity | –
2 | (cyclo 31–34) [Ac-Asp^8,D-Phe^11,Lys^34]-Ucn(8–40) [Example 10C] | very good selectivity | little or no effect | effectively antagonize CRF activity | does not significantly alter its selectivity
3 | [D-Phe^11, Gln^31,Lys(Ac)^34]-Ucn(11–40) [Example 10B] | very good selectivity | little or no effect | effectively antagonize CRF activity | –
4 | (cyclo 31–34)[Ac-D-2Nal^11, His^12, CML^13,39, Nle^17, Glu^31, Lys^34]-sauvagine(11–40) [Example 6] | – | – | effectively antagonize CRF activity | –
5 | (cyclo 31–34)[Ac-D-Leu^11, His^12, CML^13,39, Nle^17, Glu^31 Lys^34]-sauvagine(8–40) [Example 3] | – | – | effectively antagonize CRF activity | –
6 | (cyclo 31–34)[Ac-D-Phe^11, His^12, CML^13,39, Nle^17, Glu^31, Orn^34]-sauvagine(11–40) [Example 8] | – | – | effectively antagonize CRF activity | –
7 | (cyclo 31–34)[Ac-D-Cpa^11, His^12, CML^13,39, Nle^17, Glu^31, Lys^34]-sauvagine(11–40) [Example 5] | – | – | effectively antagonize CRF activity | –
8 | [Ac-Asp^8,D-Phe^11,CML^13,39, Lys^34]-Ucn(8–40) [Example 10D] | very good selectivity | little or no effect | effectively antagonize CRF activity | –
9 | (cyclo 31–34)[Ac-D-3 Pal^11, His^12, CML^13,39, Nle^17, Glu^31, Lys^34]-sauvagine(11–40) [Example 7] | – | – | effectively antagonize CRF activity | –
10 | (cyclo 31–34) [D-Tyr^11, Lys^34], -Ucn(11–40) [Example 10] | very good selectivity | little or no effect | effectively antagonize CRF activity | –
11 | (cyclo 31–34)[Ac-D-Tyr^11, His^12, CML^13,39, Nle^17, Glu^31, Lys^34]-sauvagine(11–40) [Example 4] | – | – | effectively antagonize CRF activity | –
